US5876981A, “Transglycosylation reactions employing β-galactosidase” (The Scripps Research Institute, priority 1996, dated 1999)

Assays:
Assay type in all cases: biochemical, Bacillus circulans
β-galactosidase [1] = test: half-life in β-galactosidase-catalyzed hydrolysis (pseudo first order kinetics); conditions: 5 mM compound, enzyme 140 U/mmol, in D2O, NMR integration of released 3 vs remaining 4
Method: (§1) The half-lives of compounds 2 and 4 determined from the pseudo first order kinetics of the β-galactosidase-catalyzed hydrolysis were measured as below. 2: A 0.5-mL solution of potassium phosphate buffer (50 mM, pH 7.0) containing 2 (5 mM) and β-galactosidase (140 unit per 1 mmol of 2) was measured continuously in a plastic cell with a 1 cm light path at 420 nm against a control in the absence of the enzyme. 4: A 5-mM solution of 4 and the enzyme (140 U/mmol) in D2 O was poured into an NMR tube, the ratio between the released 3 and remaining 4 was determined periodically by the integration of 6-H of 4 (3.98 ppm) and 6-H of 3 (3.88 ppm).

β-galactosidase [2] = test: initial reaction rate of β-galactosidase-catalyzed reaction (released p-nitrophenol, 420 nm); conditions: 0.05M donor, 0.05M potassium phosphate buffer pH 7.0, room temperature
Method: FIG. 2 illustrates the comparison of β-galactosidase-catalyzed reaction using galactopyranose (GalβOpNP) and galactohexodialdose (6-oxo-GalβOpNP). (a): The reaction mixture containing 0.05M of donor, and various concentrations of N-acetyl-D-glucosamine in 0.05M potassium phosphate buffer (pH 7.0) was gently stirred at room temperature in the presence of the enzyme (140 U/mmol of donor) for 24 hours; (b) The mixture (containing the same components as described in (a)) was incubated with shaking for 5-10 min at room temperature. Absorbance was measured at 420 nm; (C) Methyl-β-N-acetyl-D-lactosamine (5) was obtained by reduction with NaBH4 followed by product isolation.
In order to determine which step is kinetically controlled, the effect of acceptors on initial reaction rate, (V)0, was investigated (FIG. 2). […] Addition of water soluble organic solvent would reduce water activity to some extent, but it often causes substrate and/or product inhibition and makes the enzyme unstable (Kieboom et al., Recl. Trav. Chim. Pays-Bas 1988, 107, 347-348). To shift the reaction toward transglycosylation in water, it is therefore necessary to kinetically control the partitioning step to favor the transglycosylation.

[3] = half-life in β-galactosidase-catalyzed hydrolysis (pseudo first order kinetics); conditions: potassium phosphate buffer with β-galactosidase; 5 mM compound, enzyme 140 unit per mmol, 50 mM potassium phosphate buffer pH 7.0, absorbance at 420 nm; read-out: T1/2 toward the β-galactosidase-catalyzed hydrolysis (converted)
Method: as §1

6'-oxo-LacNAc [Compound 4]
T1/2 toward the β-galactosidase-catalyzed hydrolysis (β-galactosidase [1]): 1860 min

O=[N+]([O-])c1ccc(O[C@@H]2O[C@H](C(O)O)[C@H](O)[C@H](O)[C@H]2O)cc1 [Compound 2, p-nitrophenyl glycoside of D-galactohexodialdose]
substrate quality for β-galactosidase (β-galactosidase [2]): relatively weak substrate | half-life at 5000 µM [3]: 24 min
